Measured values as given in patent US20250215039A1, “NUCLEOSIDES FOR TREATING CANCER” (PRIMEFOUR THERAPEUTICS, INC., priority 2022, published 2025).
Like-named read-outs stand apart in the source and are kept apart here.

Tests used:
[1] = system: cancer cell lines; test: Cancer cell proliferation activity (CellTiterGlo, 72 h); type: cell-based; conditions: 72 h, 72 h, read-out: IC50 cell proliferation
Procedure, shortened: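 Cells seeded overnight at 37 °C, then dosed with compound at 0.1% final DMSO and incubated 72 h at 37 °C (5% or 10% CO2 by medium).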

[2] = target: human cytidine deaminase (CDA) (Homo sapiens, UniProt P32320); test: Metabolism by human cytidine deaminase (CDA), substrate absorbance at 290 nm
Sequence of human cytidine deaminase (CDA) (P32320 whole entry): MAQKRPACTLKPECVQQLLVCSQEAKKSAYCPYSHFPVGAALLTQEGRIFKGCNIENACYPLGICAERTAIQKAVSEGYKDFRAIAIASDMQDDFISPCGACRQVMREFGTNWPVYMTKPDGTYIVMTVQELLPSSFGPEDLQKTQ

C[C@]1(CO)O[C@@H](n2ccc(N)nc2=O)C(F)(F)[C@@H]1O [Cpd. No. 190, 4-amino-1-((2R,4R,5R)-3,3-difluoro-4-hydroxy-5-(hydroxymethyl)-5-methyltetrahydrofuran-2-yl)pyrimidin-2(1H)-one]
IC50 ([1]; 5637 (bladder)): 3.87 µM | IC50 ([1]; CLS439 (bladder)): > 50 µM | IC50 ([1]; HS729 (muscle)): 4.74 µM | IC50 ([1]; J82 (bladder)): > 50 µM | IC50 ([1]; JAR (placenta)): > 50 µM | IC50 ([1]; MT3 (breast)): 1.08 µM | IC50 ([1]; PANCI (pancreas)): > 50 µM | IC50 ([1]; PC3 (prostate)): 1.46 µM | IC50 ([1]; RD (muscle)): > 50 µM | IC50 ([1]; T24 (bladder)): 3.21 µM | IC50 ([1]; Homo sapiens, 22Rv1, 72 h, 22RV1 (prostate)): > 50 µM | IC50 ([1]; Homo sapiens, 786-0, 72 h, 786O (kidney)): > 50 µM | IC50 ([1]; Homo sapiens, A204, 72 h, A204 (muscle)): 0.17 µM | IC50 ([1]; Homo sapiens, A549, 72 h, A549 (lung)): 2.9 µM | IC50 ([1]; Homo sapiens, A673, 72 h, A673 (bone)): > 50 µM | IC50 ([1]; Homo sapiens, A2780, 72 h, A2780 (ovary)): 5.39 µM | IC50 ([1]; Homo sapiens, A-375, 72 h, A375 (skin)): > 50 µM | IC50 ([1]; Homo sapiens, A-431, 72 h, A431 (skin)): 3.8 µM | IC50 ([1]; Homo sapiens, ACHN, ACHN (kidney)): 2.85 µM | IC50 ([1]; Homo sapiens, ASPC1, 72 h, ASPC1 (pancreas)): > 50 µM | IC50 ([1]; Homo sapiens, BT-20, 72 h, BT20 (breast)): > 50 µM | IC50 ([1]; Homo sapiens, BXPC-3, 72 h, BXPC3 (pancreas)): > 50 µM | IC50 ([1]; Homo sapiens, C-33-A, C33A (endometrial)): 2.08 µM | IC50 ([1]; Homo sapiens, CAKI-1, 72 h, CAKI1 (kidney)): 1.07 µM | IC50 ([1]; Homo sapiens, COLO 205, 72 h, COLO205 (colon)): 3.03 µM | IC50 ([1]; Homo sapiens, COLO-678, 72 h, COLO678 (colon)): > 50 µM | IC50 ([1]; Homo sapiens, Ca-Ski, CASKI (endometrial)): > 50 µM | IC50 ([1]; Homo sapiens, Caco-2, 72 h, CACO2 (colon)): > 50 µM | IC50 ([1]; Homo sapiens, Calu-6, 72 h, CALU6 (lung)): 5.25 µM | IC50 ([1]; Homo sapiens, DLD-1, 72 h, DLD1 (colon)): > 50 µM | IC50 ([1]; Homo sapiens, DU-145, 72 h, DU145 (prostate)): 3.18 µM | IC50 ([1]; Homo sapiens, EFO-21, 72 h, EFO21 (ovary)): > 50 µM | IC50 ([1]; Homo sapiens, EJ-28, 72 h, EJ28 (bladder)): > 50 µM | IC50 ([1]; Homo sapiens, Granta-519, 72 h, GRANTA-519 (hematological)): 1.24 µM | IC50 ([1]; Homo sapiens, HCT-15, 72 h, HCT15 (colon)): 3.1 µM | IC50 ([1]; Homo sapiens, HCT-116, 72 h, HCT116 (colon)): 3.28 µM | IC50 ([1]; Homo sapiens, HEK293, 72 h, HEK293 (kidney)): > 50 µM | IC50 ([1]; Homo sapiens, HL-60, 72 h, HL-60 (hematological)): > 50 µM | IC50 ([1]; Homo sapiens, HT-29, 72 h, HT29 (colon)): > 50 µM | IC50 ([1]; Homo sapiens, HT-1080, 72 h, HT1080 (connective tissue)): 4.73 µM | IC50 ([1]; Homo sapiens, HeLa, HELA (endometrial)): > 50 µM | IC50 ([1]; Homo sapiens, HepG2, 72 h, HEPG2 (liver)): > 50 µM | IC50 ([1]; Homo sapiens, Hs-578T, HS578T (breast)): > 50 µM | IC50 ([1]; Homo sapiens, IGROV-1, 72 h, IGROV1 (ovary)): 4.31 µM | IC50 ([1]; Homo sapiens, IMR-90, 72 h, IMR90 (lung)): > 50 µM | IC50 ([1]; Homo sapiens, JEG-3, 72 h, JEG3 (placenta)): > 50 µM | IC50 ([1]; Homo sapiens, JIMT-1, 72 h, JIMT1 (breast)): 2.23 µM | IC50 ([1]; Homo sapiens, K562, 72 h, K-562 (hematological)): > 50 µM | IC50 ([1]; Homo sapiens, Kasumi 1, 72 h, KASUMI-1 (hematological)): 2.23 µM | IC50 ([1]; Homo sapiens, L-363, 72 h, L-363 (hematological)): > 50 µM | IC50 ([1]; Homo sapiens, LoVo, LOVO (colon)): 2.74 µM | IC50 ([1]; Homo sapiens, MCF7, 72 h, MCF7 (breast)): > 50 µM | IC50 ([1]; Homo sapiens, MDA-MB-231, 72 h, MDAMB231 (breast)): 2.23 µM | IC50 ([1]; Homo sapiens, MDA-MB-435, 72 h, MDAMB435 (skin)): 4.7 µM | IC50 ([1]; Homo sapiens, MDA-MB-436, 72 h, MDAMB436 (breast)): > 50 µM | IC50 ([1]; Homo sapiens, MDA-MB-468, 72 h, MDAMB468 (breast)): > 50 µM | IC50 ([1]; Homo sapiens, MG-63, 72 h, MG63 (bone)): > 50 µM | IC50 ([1]; Homo sapiens, MHH-ES-1, 72 h, MHHES1 (bone)): > 50 µM | IC50 ([1]; Homo sapiens, MIA PaCa-2, 72 h, MIAPACA2 (pancreas)): > 50 µM | IC50 ([1]; Homo sapiens, MINO, MINO (hematological)): 0.43 µM | IC50 ([1]; Homo sapiens, MV4-11, 72 h, MV4-11 (hematological)): 3.8 µM | IC50 ([1]; Homo sapiens, NCI-H23, 72 h, NCI-H23 (lung)): > 50 µM | IC50 ([1]; Homo sapiens, NCI-H82, 72 h, NCIH82 (lung)): > 50 µM | IC50 ([1]; Homo sapiens, NCI-H292, 72 h, NCIH292 (lung)): > 50 µM | IC50 ([1]; Homo sapiens, NCI-H460, 72 h, NCIH460 (lung)): 5.68 µM | IC50 ([1]; Homo sapiens, OVCAR-3, 72 h, OVCAR3 (ovary)): 2.57 µM | IC50 ([1]; Homo sapiens, OVCAR-4, 72 h, OVCAR4 (ovary)): > 50 µM | IC50 ([1]; Homo sapiens, PLC-PRF-5, 72 h, PLCPRF5 (liver)): > 50 µM | IC50 ([1]; Homo sapiens, Panc1005, 72 h, PANC1005 (pancreas)): > 50 µM | IC50 ([1]; Homo sapiens, Ramos, RAMOS (hematological)): 2.69 µM | IC50 ([1]; Homo sapiens, SAOS-2, 72 h, SAOS2 (bone)): 1.49 µM | IC50 ([1]; Homo sapiens, SF-268, 72 h, SF268 (brain)): 3.8 µM | IC50 ([1]; Homo sapiens, SF-295, 72 h, SF295 (brain)): > 50 µM | IC50 ([1]; Homo sapiens, SK-BR-3, 72 h, SKBR3 (breast)): 4.56 µM | IC50 ([1]; Homo sapiens, SK-HEP1, 72 h, SKHEP1 (liver)): 2.54 µM | IC50 ([1]; Homo sapiens, SK-LMS-1, 72 h, SKLMS1 (uterus)): > 50 µM | IC50 ([1]; Homo sapiens, SK-MEL-5, 72 h, SKMEL5 (skin; SKMELS [sic] in Table 9E)): > 50 µM | IC50 ([1]; Homo sapiens, SK-MEL-28, 72 h, SKMEL28 (skin)): > 50 µM | IC50 ([1]; Homo sapiens, SK-N-AS, SKNAS (brain)): > 50 µM | IC50 ([1]; Homo sapiens, SK-N-SH, SKNSH (brain)): > 50 µM | IC50 ([1]; Homo sapiens, SK-OV-3, 72 h, SKOV3 (ovary)): > 50 µM | IC50 ([1]; Homo sapiens, SNB-75, 72 h, SNB75 (brain)): > 50 µM | IC50 ([1]; Homo sapiens, SU-DHL10, 72 h, SU-DHL-10 (hematological)): 2.73 µM | IC50 ([1]; Homo sapiens, SU-DHL-6, 72 h, SU-DHL-6 (hematological)): 2.87 µM | IC50 ([1]; Homo sapiens, SW-620, 72 h, SW620 (colon)): 4.6 µM | IC50 ([1]; Homo sapiens, TE-671, 72 h, TE671 (muscle)): > 50 µM | IC50 ([1]; Homo sapiens, THP-1, 72 h, THP-1 (hematological)): 3.44 µM | IC50 ([1]; Homo sapiens, U2OS, U20S (bone; U2OS in Table 9E)): > 50 µM | IC50 ([1]; Homo sapiens, U-87 MG, U87MG (brain)): 2.91 µM | IC50 ([1]; Homo sapiens, UMUC3, 72 h, UMUC3 (bladder)): > 50 µM | IC50 ([1]; Homo sapiens, UO-31, 72 h, UO31 (kidney)): 8.13 µM | IC50 ([1]; Homo sapiens, WSU-NHL, WSU-NHL (hematological)): 1.67 µM | IC50 ([1]; NCI-H358M, NCIH358M (lung)): 1.04 µM | IC50 ([1]; PBMC, PBMC (hematological)): 2.61 µM | IC50 ([1]; RD-ES, RDES (bone)): > 50 µM | metabolism (deamination) by human CDA (line graph) ([2]; 12 nM CDA, 50 and 200 uM substrate, 37° C., pH 7.5, figure legends FIG. 4-9): not metabolized | substrate conversion by CDA (Inactive) ([2]; rate of substrate conversion at 200 μM, could not be fitted): Inactive
